Laboratory results taken from patent publication US20040068762A1, “Transgenic non-human mammals expressing a reporter nucleic acid under the regulation of androgen response elements” (priority 2002, published 2004).
Like-named read-outs stand apart in the source and are kept apart here.

Test system: androgen receptor

| SMILES | inhibition of the testosterone effect (luciferase expression) (bone, Casodex 50 mg/kg p.o. with testosterone 2 mg/kg s.c.) [%] | luciferase response in kidney (inhibition of testosterone effect) (kidney, Casodex 50 mg/kg p.o. with testosterone 2 mg/kg s.c.) | inhibition of the testosterone effect (luciferase expression) (prostate-seminal vesicles, Casodex 50 mg/kg p.o. with testosterone 2 mg/kg s.c.) [%] | inhibition of the testosterone effect (luciferase expression) (quadriceps, Casodex 50 mg/kg p.o. with testosterone 2 mg/kg s.c.) [%] | luciferase induction over untreated (bone, testosterone 2 mg/kg s.c.) [fold] | luciferase response in kidney (testosterone induction) (kidney, testosterone 2 mg/kg s.c.) | luciferase induction over untreated (prostate-seminal vesicles, testosterone 2 mg/kg s.c.) [fold] | luciferase induction over untreated (quadriceps, testosterone 2 mg/kg s.c.) [fold] |
| --- | --- | --- | --- | --- | --- | --- | --- | --- |
| CC(O)(CS(=O)(=O)c1ccc(F)cc1)C(=O)Nc1ccc(C#N)c(C(F)(F)F)c1 (centres unmarked) [bicalutamide] | 86 | No response | 90 | 92 |  |  |  |  |
| C[C@]12CC[C@H]3[C@@H](CCC4=CC(=O)CC[C@@]43C)[C@@H]1CC[C@@H]2O [testosterone] |  |  |  |  | 3.3 | No response | 5.6 | 5.8 |
